Test results as given in patent publication US12697277B2, “Materials and methods for mitigating the presence of nitrosamines in packaging using an active agent” (CSP TECHNOLOGIES, INC., priority 2024, dated 2026).
Blank lines part the entries; values can stand above or below the compound they belong to.

How the values were obtained:
[1] = Maximum daily dose (MDD) and acceptable intake (AI) for each nitrosamine formed by each drug
[2] = acceptable intake of the nitrosamine per day; cited from earlier work
[3] = Raw active and film studies with propranolol: Nitroso-propranolol (NPO) by LC-MS; type: physicochemical; details: raw active 5 g in pouch in 250 ml bottle with 1 g propranolol; 50° C./75% RH, 4 weeks
Procedure: Raw active or film with active were tested in 250 ml bottles with 1 g of propranolol (beads), to measure formation of Nitroso-propranolol (NPO). When present, the film (2 pieces of A2×2 inches) was wrapped inside bottle(s). Raw active (5 g) was placed in a pouch inside bottle(s).
Humidity was provided by vials containing a salt solution: ASAPprime™ vials (FreeThink Technologies, Branford CT, USA). A screw cap was used, with no induction seal.
NPO was directly measured by LC-MS (liquid chromatography-mass spectroscopy). The detection limit is approximately 1% of the results reported.

[4] = Effect of active agent (sachet or film) on nitrite in GC vial headspace, cyclohexene derivative method; type: physicochemical; details: 50 mg active in sachet hanging in GC vial headspace over sulfuric acid + potassium nitrite; 24 hours at 60° C.
Procedure: A 1 inch×0.5 inch tea bag sachet containing 50 mg±2 mg of a potential active agent, or a 1 cm^2 film was placed hanging in a GC vial headspace. […] 1 mL of 1M sulfuric acid solution and 1 mL of potassium nitrite solution (1 g/10 mL) was placed into the GC vial. The film or sachet was placed suspended inside the GC vial, and sealed, and aged for 24 hours at 60° C. GC-MS was conducted on the headspace using the derivative method. The methodology is based on a chemically derivative method that reacts all available NOx or nitrite directly into a measurable compound (cyclohexene) using acidified sodium cyclamate. The reaction is shown below:
It will be understood that both the nitrite anion (NO2^−) and […] (HNO2), with the relative amounts being determined by solution pH, will be quantified by this method, and gaseous NOx can also be quantified, due to its equilibrium with aqueous phase species. For simplicity, results of this test may be described as measuring the amount of nitrite.

[5] = Film and sachet comparison in monolayer bottles: nitrite; type: physicochemical; details: raw active in sachet in monolayer bottle; 60° C., 40% RH, 6 days
Procedure: For raw active samples, the appropriate mass was weighed as shown in Table 20 and was placed in a sachet which was closed. Films were cut to 120 mm×65 mm. Film thickness was from about 0.3 mm to about 1.2 mm.
A 20 mL scintillation vial was placed in each bottle. 3.5 mL of potassium nitrite and 3.5 mL of sulfuric acid were added to the scintillation vial. GC-MS was conducted on the headspace using the cyclohexene derivative method for nitrite. Samples were aged at 60° C. and 40% RH for 6 days.

[6] = NO adsorption by raw active and film, fixed bed reactor; type: physicochemical; details: raw active, 250 mg, 22° C.
Procedure: (§1) NO and NO2 adsorption experiments were conducted within a fixed bed reactor at 22° C. In each experimental run, 250 mg of the sample was meticulously deposited onto a fused silica frit positioned within a vertical quartz reactor, which boasted an internal diameter of 6 mm. Prior to each experiment, the system underwent a thorough purge using nitrogen (N) to eliminate any residual gases and ensure a clean starting point. Following the purge, calibration procedures were meticulously carried out to guarantee the accuracy of the concentration measurements. This involved precisely calibrating the ROSEMOUNT NGA 2000 detector to establish a reliable baseline for the subsequent experiments. […] Throughout the experiments, the concentrations of outlet gases, namely NO and NO2, were continuously monitored. This real-time analysis was facilitated by the highly sensitive ROSEMOUNT NGA 2000 detector (St. Louis, MO, USA). To account for any background signals or potential interferences, a blank experiment was conducted using an empty reactor. The obtained results from this blank experiment were subtracted from the measurements of the sample, ensuring that the recorded concentrations accurately reflected the adsorption behavior of NO2 by the sample. This meticulous approach enhances the reliability and precision of the experimental findings.

[7] = NO2 adsorption by raw active and film, fixed bed reactor; type: physicochemical; details: raw active, 250 mg, 22° C.; for NO2 Adsorbed Amount: 505 ppm of NO2
Procedure: as §1

[8] = Effect of raw active on nitrite, headspace GC (modified FDA protocol); type: physicochemical; details: raw active 50 mg in GC vial with sulfuric acid + potassium nitrite, 24 hours at 60° C., estimated ppm of nitrous acid in headspace
Procedure: The active sachet was placed inside the GC vial and sealed and aged for 24 hours at 60° C. Controls only contained the liquid. GC was conducted on the headspace using a modified version of the FDA protocol for GC-MS/MS to detect nitrite. […] Food & Drug Administration (FDA), Apr. 29, 2019, published online.

[9] = FDA acceptable intake limit; cited from earlier work

Compound: O=NN1CCC(c2ccccc2)CC1 [1-nitroso-4-phenylpiperdine]
AI (ppm) ([1]; 4-Phenylpiperdine (CPCA Calculated), MDD (ketophrofen) 200 mg): 2 ppm
AI (ppm) ([1]; 4-Phenylpiperdine (CPCA Calculated), MDD (meperide) 600 mg): 0.67 ppm
AI (ppm) ([1]; 4-Phenylpiperdine (CPCA Calculated), MDD (pethidine) 400 mg): 1 ppm
average AI ([1]; average of the three MDD-based values): 1.2 ppm

Compound: CN(CC(O)c1cccc(O)c1)N=O (stereo not drawn) [1-nitroso-phenylephrine]
AI /day [2]: 100 ng
AI (ppm) ([1]; Phenylephrine, MDD 60 mg): 1.67 ppm

Compound: Nc1ccc(C(=O)O)cc1 [4-aminobenzonic acid]
NPO (% Decrease) [3]: 7%

NO Adsorbed Amount [6]: 0.14 mg/g
NO2 Adsorbed Amount [7]: 2.50 mg/g
Compound: O=C1O[C@H]([C@@H](O)CO)C(O)=C1O [Ascorbic Acid, L-ascorbic acid]
Nitrite (% decrease) [4]: 23.7%
Nitrite (% decrease) [5]: −111.1%
NPO (% Decrease) [3]: 9%
Nitrite (ppm) [8]: 0.08 ppm
Nitrite (ppm) ([8]; listed as Ascorbic acid): most effective raw active at decreasing the level of nitrite

Compound: CC1=C(/C=C/C(C)=C/C=C/C(C)=C/C=C/C=C(C)/C=C/C=C(C)/C=C/C2=C(C)C(=O)[C@@H](O)CC2(C)C)C(C)(C)C[C@H](O)C1=O [Astaxanthin]
Nitrite (% decrease) [4]: 35.0%

NO2 Adsorbed Amount [7]: 2.96 mg/g
Compound: OC[C@H]1O[C@@H]2O[C@H]3[C@H](O)[C@@H](O)[C@@H](O[C@H]4[C@H](O)[C@@H](O)[C@@H](O[C@H]5[C@H](O)[C@@H](O)[C@@H](O[C@H]6[C@H](O)[C@@H](O)[C@@H](O[C@H]7[C@H](O)[C@@H](O)[C@@H](O[C@H]8[C@H](O)[C@@H](O)[C@@H](O[C@H]1[C@H](O)[C@H]2O)O[C@@H]8CO)O[C@@H]7CO)O[C@@H]6CO)O[C@@H]5CO)O[C@@H]4CO)O[C@@H]3CO [Beta Cyclodextrin Powder, Beta Cyclodextrin]
Nitrite (% decrease) [4]: 25.6%

Compound: O=C(O)/C=C/c1ccc(O)c(O)c1 [Caffeic Acid]
Nitrite (% decrease) [4]: 31.6%

Compound: O=C([O-])[O-].[Ca+2] [Calcium Carbonate]
Nitrite (% decrease) [4]: 46.9%
NO Adsorbed Amount [6]: 0.15 mg/g
NO2 Adsorbed Amount [7]: 7.75 mg/g
NO2 Adsorbed Amount (mg/g) ([7]; 505 ppm of NO2, listed as calcium carbonate): most effective NO2 adsorber from amongst the raw actives tested

Compound: O=S(=O)([O-])[O-].[Ca+2] [Calcium Sulfate]
Nitrite (% decrease) [4]: 22.2%

Compound: COC1=C(OC)C(=O)C(C/C=C(\C)CC/C=C(\C)CC/C=C(\C)CC/C=C(\C)CC/C=C(\C)CC/C=C(\C)CC/C=C(\C)CC/C=C(\C)CC/C=C(\C)CCC=C(C)C)=C(C)C1=O [Coenzyme Q10]
Nitrite (% decrease) [4]: −7.8%

Compound: [O]=[Fe][O][Fe]=[O] [Ferric Oxide]
Nitrite (% decrease) [4]: 14.3%

NO2 Adsorbed Amount [7]: 3.27 mg/g
Compound: COc1cc(/C=C/C(=O)O)ccc1O [Ferulic Acid]
Nitrite (% decrease) [4]: 61.7%

Compound: Cl [Hydrochloric Acid]
Nitrite (% decrease) [4]: 14.4%

Compound: N[C@@H](CS)C(=O)O [L-cysteine]
NPO (% Decrease) [3]: 2%

Compound: CC(C)=CCC/C(C)=C/C=C/C(C)=C/C=C/C(C)=C/C=C/C=C(C)/C=C/C=C(C)/C=C/C=C(\C)CCC=C(C)C [Lycopene]
Nitrite (% decrease) [4]: 23.7%

Compound: O=C([O-])[O-].[Mg+2] [Magnesium Carbonate]
Nitrite (% decrease) [4]: 33.9%
NO2 Adsorbed Amount [7]: 8.03 mg/g

Compound: [Cl-].[Cl-].[Mg+2] [Magnesium Chloride]
Nitrite (% decrease) [4]: −15.7%

Compound: CCN(CC)N=O [NDEA, N-nitrosodiethylamine]
AI Limit [9]: 26.5 ng/day

Compound: CC(C)N(N=O)C(C)C [NDIPA, N-nitrosodi-2-propylamine]
AI Limit [9]: 26.5 ng/day

Compound: CN(C)N=O [NDMA, N-nitrosodimethylamine]
AI Limit [9]: 96 ng/day
AI /day [2]: 96 ng
AI (ppm) ([1]; Ranitidine, MDD 320 mg): 0.3 ppm

Compound: CCN(N=O)C(C)C [NIPEA]
AI Limit [9]: 26.5 ng/day

Compound: CN(CCCC(=O)O)N=O [NMBA]
AI Limit [9]: 96 ng/day

Compound: CCCOC(=O)c1cc(O)c(O)c(O)c1 [Propyl Gallate]
Nitrite (% decrease) [4]: 3.2%

Compound: O=C1O[C@H]([C@@H](O)CO)C([O-])=C1O.[Na+] [Sodium Ascorbate]
NPO (% Decrease) [3]: 9%

Compound: O=C([O-])O.[Na+] [Sodium Bicarbonate]
Nitrite (% decrease) [4]: 57.7%
Nitrite (% decrease) [5]: 72.8%
NO Adsorbed Amount [6]: 0.14 mg/g
NO2 Adsorbed Amount [7]: 2.24 mg/g

Compound: [Cl-].[Na+] [Sodium Chloride]
Nitrite (% decrease) [4]: 86.8%
Nitrite (% decrease) [5]: 99.9%
NO Adsorbed Amount [6]: 0.34 mg/g
NO2 Adsorbed Amount [7]: 2.00 mg/g

Compound: CC1=C(/C=C/C(C)=C/C=C/C(C)=C/C=C/C=C(C)/C=C/C=C(C)/C=C/C2=C(C)C[C@@H](O)CC2(C)C)C(C)(C)C[C@H](O)C1 [Zeaxanthin]
Nitrite (% decrease) [4]: 26.6%

Compound: Sodium Alginate
Nitrite (% decrease) [4]: 27.7%

Compound: Vitamin A
Nitrite (% decrease) [4]: 11.3%

NO Adsorbed Amount [6]: 0.16 mg/g
NO2 Adsorbed Amount [7]: 4.95 mg/g
Compound: Vitamin E
Nitrite (% decrease) [4]: 89.8%
Nitrite (% decrease) [5]: 31.6%
